Legend:
Assay type in all cases: physicochemical
[1] = Amorphous pemetrexed disodium stability study (HPLC purity, moisture content, XRD on storage); parameters: key to HPLC: % chromatographic purity by HPLC area normalisation; conditions: for HPLC: in % (unit assumed)
Description: (§1) X-ray diffraction data were acquired using a PANalyticalX′pert PRO X-ray diffractometer model.
(§2) System description: Kα1=1.54060 A^0, voltage 45 kV, current 40 mA, Xray source: Cu.
(§3) Experiment parameters: pattern measured between 2θ=4° and 2θ=40° with 0.05° increments; count time was 0.5 second per increment.
(§4) The water content measurements were carried out using a METTLER TOLEDO Model: DL31Karl Fischer Titrator according to standard procedures.
(§5) Purity by HPLC was performed by Waters 2690 Seperations module.system.
The samples were packed in double seal poly bags followed by Aluminium bag sealed under nitrogen with oxygen trapper and stored • at 2-8° C. for a period of six months • 25° C./60% relative humidity (RH) for a period of six months.
The purity of the sample was checked by HPLC and XRD was recorded for the samples stored under these conditions after 2 months and 6 months.
Inject 20 μl of test solution and calculate the chromatographic purity by area normalisation method.

[2] = Material kept outside at room temperature for 15 hrs (XRD, water content, HPLC purity); conditions: after room temperature
Description: as §1, §4, §5
The material was kept outside at room temperature for 15 hrs.

[3] = Conservation of amorphous form under various storage conditions (XRD, moisture content)
Description: as §1, §2, §3, §4

[4] = Bulk and tapped density (tap density tester, USP)
From the text: As referred to herein the term “bulk density” is the weight of the sample divided by its non packed volume and the term “tapped density” is the weight of the sample divided by its packed volume. The units of bulk density are grams (gm) per cubic centimeter (cc) or grams (gm) per milliliter (ml). A powder having low bulk density will be lightweight, fluffy and have greater surface area. A powder with high density will be much more compact and dense, exist as harder particles and will result in a more flowable product compared to powder with low bulk density. Bulk and tapped densities were measured using Electrolab ETD-1020 tap density tester (USP).

[5] = 2-8° C. or 25° C./60% relative humidity, six months
[6] = 40° C./75% relative humidity for 7 days, double polythene bags in a fiber drum
[7] = 80° C. for 7 days, open petriplate
[8] = Room temperature for 24 hours, open petriplate
[9] = Room temperature for 40 days, double polythene bags

% Moisture Content ([1]; 2-8° C., 2 Months) [%]	% Moisture Content ([1]; 2-8° C., 6 Months) [%]	XRD ([1]; 2-8° C., 6 Months)	HPLC ([1]; 2-8° C., 6 Months)	% Moisture Content ([1]; 2-8° C., Initial) [%]	HPLC ([1]; 2-8° C., Initial)	% Moisture Content ([1]; 25° C. RH 60%, 2 Months) [%]	% Moisture Content ([1]; 25° C. RH 60%, 6 Months) [%]	HPLC ([1]; 25° C. RH 60%, 6 Months)	% Moisture Content ([1]; 25° C. RH 60%, Initial) [%]	HPLC ([1]; 25° C. RH 60%, Initial)	Structure (SMILES)	other results
8.96	9.39	Amorphous	99.62	9.04	99.68	8.39	8.85	99.67	9.04	99.68	Nc1nc2[nH]cc(CCc3ccc(C(=O)NC(CCC(=O)[O-])C(=O)[O-])cc3)c2c(=O)[nH]1.[Na+].[Na+] (stereo not shown) [Amorphous Form of Pemetrexed Disodium, with Moisture Content] [listing 1 of 2 here]	HPLC ([1]; 2-8° C., 2 Months): 99.72; XRD ([1]; 2-8° C., Initial): Amorphous; HPLC ([1]; 25° C. RH 60%, 2 Months): 99.72; XRD ([1]; 25° C. RH 60%, 6 Months): Amorphous; XRD ([1]; 25° C. RH 60%, Initial): Amorphous
11.68	12.31	Amorphous	99.59	15.92	99.66	10.26	11.45	99.63	15.92	99.66	Nc1nc2[nH]cc(CCc3ccc(C(=O)NC(CCC(=O)[O-])C(=O)[O-])cc3)c2c(=O)[nH]1.[Na+].[Na+] (stereo not shown) [Amorphous Form of Pemetrexed Disodium, with Moisture Content] [listing 2 of 2 here]	–
–	–	–	–	–	–	–	–	–	–	–	Nc1nc2[nH]cc(CCc3ccc(C(=O)NC(CCC(=O)[O-])C(=O)[O-])cc3)c2c(=O)[nH]1.[Na+].[Na+] (stereo not shown) [Example 3, amorphous pemetrexed disodium]	HPLC purity [2]: 99.66%; Water content [2]: 16%; X-ray diffraction (form) [2]: amorphous form is retained
–	–	–	–	–	–	–	–	–	–	–	Nc1nc2[nH]cc(CCc3ccc(C(=O)NC(CCC(=O)[O-])C(=O)[O-])cc3)c2c(=O)[nH]1.[Na+].[Na+] (stereo not shown) [amorphous form of pemetrexed disodium, pemetrexed disodium]	amorphous form after storage (XRD) [1, 5]: amorphous form is retained; impurity formation / chemical purity after storage (HPLC) [1, 5]: no significant formation of impurities; % Moisture Content after storage [3, 6]: 18.27%; XRD [3, 6]: Amorphous form; % Moisture Content after storage [3, 7]: 6.24%; XRD [3, 7]: Amorphous form; % Moisture Content after storage [3, 8]: 20.03%; XRD [3, 8]: Amorphous form; % Moisture Content after storage [3, 9]: 18.56; XRD [3, 9]: Amorphous form; % Moisture Content Initial ([3]; before storage): 5.48%
–	–	–	–	–	–	–	–	–	–	–	Nc1nc2[nH]cc(CCc3ccc(C(=O)NC(CCC(=O)[O-])C(=O)[O-])cc3)c2c(=O)[nH]1.[Na+].[Na+] (stereo not shown) [Example 2, amorphous pemetrexed disodium]	Bulk density [4]: 0.226 gm/ml; Tapped density [4]: 0.369 gm/ml

— patent US20090181990A1 (priority 2007, published 2009)
